We go through six molecules from PubChem BioAssay AID1259411 (Chemical Carcinogenesis Research Information System (CCRIS), 2018).

In this data set the test system is rodent carcinogenicity bioassays, tumor incidence. Nature of the data set: CCRIS carcinogenicity studies. In a few lines: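 NCI-built, expert-reviewed records of carcinogenicity and related test outcomes (mutagenicity, tumor promotion/inhibition) compiled from published and report sources, historical span 1985-2011, not updated.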

Activity calls are given as the source filed them. No rule for the calls is given here.

Regarding `O=CC=O`, the carcinogen call (Species: MOUSE, Strain/Sex: CD-1/FEMALE, Route: DERMAL, Dose: 0, 50 UMOL/O.1 ML DMSO 2/WK FOR 5 WK FOLLOWED 1 WK LATER BY 0.1 ML ACETONE 2/WK FOR 47 WK (STUDY DURATION: 52 WK)) was “inactive; negative”.
`N#[N+]c1ccc(CO)cc1`: the carcinogen call is, setting by setting: (Species: MOUSE, Strain/Sex: SWISS/FEMALE, Route: SUBCUTANEOUS, Dose: 0, 50 UG/G BW IN 0.01 ML 0.9% SALINE 1/WK FOR 26 WK (STUDY DURATION: 140 WK), Tumor Site: Type of Lesion: SUBCUTIS: TUMOR, SKIN: TUMOR) “active; positive”; (Species: MOUSE, Strain/Sex: SWISS/MALE, Route: SUBCUTANEOUS, Dose: 0, 50 UG/G BW IN 0.01 ML 0.9% SALINE 1/WK FOR 26 WK (STUDY DURATION: 140 WK), Tumor Site: Type of Lesion: SUBCUTIS: TUMOR, SKIN: TUMOR) “active; positive”.
Regarding `Cc1cc(N=Nc2c(O)ccc3ccccc23)c(S(=O)(=O)O)cc1Cl`, the carcinogen call is “inactive; negative” (Species: MOUSE, Strain/Sex: B6C3F1/FEMALE, Route: ORAL, Dose: 0, 1000, 2000 PPM IN DIET FOR 103 WK (STUDY DURATION: 103 WK), Dose: 0, 1000, 2000 PPM IN DIET FOR 103 WK (STUDY DURATION: 103 WK)); “inactive; negative” (Species: MOUSE, Strain/Sex: B6C3F1/MALE, Route: ORAL, Dose: 0, 1000, 2000 PPM IN DIET FOR 103 WK (STUDY DURATION: 103 WK), Dose: 0, 1000, 2000 PPM IN DIET FOR 103 WK (STUDY DURATION: 103 WK)); “inactive; negative” (Species: MOUSE, Strain/Sex: ICR/FEMALE, Route: DERMAL, Dose: 0, 1 MG IN 0.1 ML DISTILLED WATER 2/WK FOR A MEAN TOTAL DOSE OF 134.7 MG (STUDY DURATION: 18 MO)); “inactive; negative” (Species: MOUSE, Strain/Sex: ICR/MALE, Route: DERMAL, Dose: 0, 1 MG IN 0.1 ML DISTILLED WATER 2/WK FOR A MEAN TOTAL DOSE OF 134.7 MG (STUDY DURATION: 18 MO)); “equivocal” (Species: RAT, Strain/Sex: F344/FEMALE, Route: ORAL, Dose: 0, 1000, 3000 PPM IN DIET FOR 103 WK (STUDY DURATION: 103 WK), Dose: 0, 1000, 3000 PPM IN DIET FOR 103 WK (STUDY DURATION: 103 WK), Tumor Site: Type of Lesion: LIVER: NEOPLASTIC NODULE); “inactive; negative” (Species: RAT, Strain/Sex: F344/FEMALE, Route: ORAL, Dose: 0, 1000, 3000 PPM IN DIET FOR 103 WK (STUDY DURATION: 104 WK), Dose: 0, 1000, 3000 PPM IN DIET FOR 103 WK (STUDY DURATION: 104 WK)). In addition, the carcinogen call by setting is: (Species: RAT, Strain/Sex: F344/MALE, Route: ORAL, Dose: 0, 1000, 3000 PPM IN DIET FOR 103 WK (STUDY DURATION: 103 WK), Dose: 0, 1000, 3000 PPM IN DIET FOR 103 WK (STUDY DURATION: 103 WK), Tumor Site: Type of Lesion: SPLEEN: SARCOMA, LIVER: NEOPLASTIC NODULE) “active; positive”; (Species: RAT, Strain/Sex: F344/MALE, Route: ORAL, Dose: 0, 1000, 3000 PPM IN DIET FOR 103 WK (STUDY DURATION: 104 WK), Dose: 0, 1000, 3000 PPM IN DIET FOR 103 WK (STUDY DURATION: 104 WK), Tumor Site: Type of Lesion: SPLEEN OR PERITONEUM: SARCOMA) “active; positive”.
Take `COc1cccc2c1C(=O)c1c(O)c3c(c(O)c1C2=O)C[C@@](O)(C(C)=O)C[C@@H]3O[C@H]1C[C@H](N)[C@H](O)[C@H](C)O1`: the carcinogen call reads like this: (Species: RAT, Strain/Sex: SPRAGUE-DAWLEY/FEMALE, Route: INTRAVENOUS, Dose: 0, 10 MG/KG IN SALINE ONCE (STUDY DURATION: 244 D) (STUDY DURATION: 244 D), Tumor Site: Type of Lesion: MAMMARY GLAND: TUMOR) “active; positive”; (Species: RAT, Strain/Sex: SPRAGUE-DAWLEY/FEMALE, Route: INTRAVENOUS, Dose: 0, 10 MG/KG IN SALINE SOLUTION ONCE (STUDY DURATION: 1 YR), Tumor Site: Type of Lesion: MAMMARY GLAND: ADENOCARCINOMA) “active; positive”; (Species: RAT, Strain/Sex: SPRAGUE-DAWLEY/FEMALE, Route: SUBCUTANEOUS, Dose: 0, 2, 4, 8 UG IN 100 µL SALINE INTO THORACIC AND ABDOMINAL MAMMARY GLANDS ONCE (STUDY DURATION: 6.5 MO), Dose: 0, 2, 4, 8 UG IN 100 µL SALINE INTO THORACIC AND ABDOMINAL MAMMARY GLANDS ONCE (STUDY DURATION: 6.5 MO), Tumor Site: Type of Lesion: MAMMARY GLAND: TUMOR) “active; positive”; (Species: RAT, Strain/Sex: SPRAGUE-DAWLEY/MALE, Route: INTRAVENOUS, Dose: 0, 10 MG/KG IN SALINE SOLUTION ONCE (STUDY DURATION: 1 YR), Tumor Site: Type of Lesion: MAMMARY GLAND: ADENOCARCINOMA) “active; positive”.
For the molecule `CC(=O)Nc1ccc(-c2ccc(NC(C)=O)cc2)cc1`, the carcinogen call is, setting by setting: (Species: RAT, Route: INTRAPERITONEAL, Tumor Site: Type of Lesion: EAR (CANAL), MAMMARY GLAND, INTEGUMENTARY SYSTEM (SKIN), Tumor Site: Type of Lesion: EAR (CANAL), MAMMARY GLAND, INTEGUMENTARY SYSTEM (SKIN)) “active; positive”; (Species: RAT, Route: ORAL, Tumor Site: Type of Lesion: EAR (CANAL)) “active; positive”; (Species: RAT, Route: SUBCUTANEOUS, Tumor Site: Type of Lesion: MAMMARY GLAND, LIVER, EAR (ZYMBAL GLAND), Tumor Site: Type of Lesion: MAMMARY GLAND, LIVER, EAR (ZYMBAL GLAND)) “active; positive”.
For the molecule `ClC(Cl)(Cl)C(Cl)(Cl)Cl`, the carcinogen call is “active; positive” (Species: MOUSE, Strain/Sex: B6C3F1/FEMALE, Route: GAVAGE, Dose: 0, 590, 1179 MG/KG, TWA, Dose: 0, 590, 1179 MG/KG, TWA, Tumor Site: Type of Lesion: LIVER: HEPATOCELLULAR CARCINOMA); “active; positive” (Species: MOUSE, Strain/Sex: B6C3F1/MALE, Route: GAVAGE, Dose: 0, 590, 1179 MG/KG, TWA, Dose: 0, 590, 1179 MG/KG, TWA, Tumor Site: Type of Lesion: LIVER: HEPATOCELLULAR CARCINOMA); “inactive; negative” (Species: RAT, Strain/Sex: F344/F, Route: GAVAGE, Dose: 0, 80, 160 MG/KG IN CORN OIL 5D/WK FOR 103 WK (STUDY DURATION: 105 WK), Dose: 0, 80, 160 MG/KG IN CORN OIL 5D/WK FOR 103 WK (STUDY DURATION: 105 WK)); “active; positive” (Species: RAT, Strain/Sex: F344/M, Route: GAVAGE, Dose: 0, 10, 20 MG/KG IN CORN OIL 5D/WK FOR 103 WK (STUDY DURATION: 105 WK), Dose: 0, 10, 20 MG/KG IN CORN OIL 5D/WK FOR 103 WK (STUDY DURATION: 105 WK), Tumor Site: Type of Lesion: ADRENAL MEDULLA: PHEOCHROMOCYTOMA, ADRENAL MEDULLA: PHEOCHROMOCYTOMA, BENIGN, COMPLEX OR MALIGNANT, KIDNEY: RENAL TUBULE, Tumor Site: Type of Lesion: ADRENAL MEDULLA: PHEOCHROMOCYTOMA, ADRENAL MEDULLA: PHEOCHROMOCYTOMA, BENIGN, COMPLEX OR MALIGNANT, KIDNEY: RENAL TUBULE); “inactive; negative” (Species: RAT, Strain/Sex: OSBORNE-MENDEL/FEMALE, Route: GAVAGE, Dose: 0, 212, 423 MG/KG, TWA FOR 44 WK, Dose: 0, 212, 423 MG/KG, TWA FOR 44 WK); “inactive; negative” (Species: RAT, Strain/Sex: OSBORNE-MENDEL/MALE, Route: GAVAGE, Dose: 0, 212, 423 MG/KG, TWA FOR 44 WK, Dose: 0, 212, 423 MG/KG, TWA FOR 44 WK).
